Laboratory results from ChEMBL document CHEMBL3045360, “Natural toxins for use in pest management” (2010).

How the values were obtained:
Type in all cases: functional
Aedes aegypti [1] = assay: Insecticidal activity against Aedes aegypti assessed as lethal compound dose per mosquito measured after 24 hr post topical application
Planorbella trivolvis = assay: Molluscicidal activity against Planorbella trivolvis
Aedes aegypti [2] = assay: Insecticidal activity against Aedes aegypti assessed as insect mortality at 2 ppm
Pomacea canaliculata [3] = assay: Molluscicidal activity against Pomacea canaliculata
Pomacea canaliculata [4] = assay: Molluscicidal activity against Pomacea canaliculata assessed as mortality at 75 uM after 24 hr
Pomacea canaliculata [5] = assay: Molluscicidal activity against Pomacea canaliculata assessed as mortality at 200 uM after 24 hr

Compound: O=C(/C=C/C=C/c1ccc2c(c1)OCO2)N1CCCCC1 [PIPERINE]
- LD50 (Aedes aegypti [1]): 8.13 µg

Compound: CC1(C)CC[C@]2(C(=O)O)CC[C@]3(C)C(=CC[C@@H]4[C@@]5(C)CC[C@H](O[C@@H]6O[C@H](CO)[C@@H](O)[C@H](O)[C@H]6O)[C@@](C)(CO)[C@@H]5CC[C@]43C)[C@@H]2C1 [Hederagenin-3-O-beta-D-glucopyranoside]
- LC50 (Planorbella trivolvis): 30 µM

Compound: C/C=C\C#CC#C/C=C\C(=O)OC [(2Z,8Z)-MATRICARIA ACID METHYL ESTER]
- LC50 (Planorbella trivolvis): 24 µM

Compound: COC(=O)N(C(=O)N1CO[C@@]2(C(=O)OC)Cc3cc(Cl)ccc3C2=N1)c1ccc(OC(F)(F)F)cc1 [INDOXACARB]
- mortality at 2 ppm (Aedes aegypti [2]): 40%

Compound: C=CCCCCCCCCC(=O)N1CCCCC1CC (stereo unspecified) [2-ethyl-1-undec-10-enoyl-piperidine]
- LD50 (Aedes aegypti [1]): 0.8 µg

Compound: CC1=CC(=O)C2C3C1C2(C)CCCC3(C)C (stereo unspecified) [VULGARONE B]
- LC50 (Pomacea canaliculata [3]): 30 µM
- mortality at 75 µM (Pomacea canaliculata [4]): 100%

Compound: CC1OC(C)OC(C)OC(C)O1 (stereo unspecified) [METALDEHYDE]
- LC50 (Pomacea canaliculata [3]): 30 µM
- mortality at 200 µM (Pomacea canaliculata [5]): 100%

Compound: O=C(/C=C/C=C/CCCCCCc1ccc2c(c1)OCO2)N1CCCCC1
- mortality at 2 ppm (Aedes aegypti [2]): 20%

Compound: CC(C)NC(=O)/C=C/C=C/CCCCCCc1ccc2c(c1)OCO2
- mortality at 2 ppm (Aedes aegypti [2]): 80%
